# How the values were obtained:
# [1] = cited from earlier work
# [2] = Epinephrine permeability with alkalizing agent and penetration enhancer, Franz cells; assay type: in vitro ADME, porcine
# Description: EpiBit solution with penetration enhancer and alkalizing agent was added to the donor chamber.
# in vitro [3] = experiment: in vitro
# Description: The volunteer was asked not to eat or drink any acidic, alkaline, or spicy food or beverages and to rinse their mouth before the collection of saliva. The saliva was collected into an ice-bathed beaker and then degased to remove air bubbles and then filtered through 0.45 μm membrane.
# Aliquot samples were withdrawn at specific time intervals including 2, 4, 6, 10, 15, and 30 min.
# [4] = between pH 4 to 5, first 2 min
# Description: Aliquot samples were withdrawn at specific time intervals including 2 (maximum expected time for sublingual administration), 4, 6, 10, 15, and 30 min.
# in vitro [5] = details: for Papp at 90 min, 10 mg/mL: pig
# Description: Frozen pig's heads were obtained from local abattoir. Then, they were defrosted at room temperature. The porcine mucosa were excised by dissecting the sublingual mucosa and removing the underlying connective tissue using a scalpel and fine tweezers using established surgical techniques. The excised mucosa were frozen on aluminum foil at −20° C. until used (<4 weeks).
# The sublingual mucosa (floor of the mouth) excised from pigs were used as the diffusion membranes. Mcvilian buffer at various pH was used in the donor cell as a diffusion medium.
# Before each experiment, the mucosal membranes were defrosted at room temperature and mounted between the donor and receptor chambers and clamped using a metal clamp. The receptor chamber that has a magnetic stirrer was filled with the diffusion medium before mounting the membranes and air bubbles were removed after mounting the membranes and before the experiment. The water bath was set at 37° C. for the circulating water in the jacketed Franz Cells. The mounted membranes were equilibrated with the diffusion medium for 30 min from both sides before the experiment and were checked for any leaks.
# Aliquots were withdrawn from the receptor chamber using 6 inch-long needles (Popper & Sons. Inc, New Hyde Park, NYC) and 1 mL syringes at 5, 10, 15, 20, 30, 45, 60, 75, and 90 min. The withdrawn volumes were replaced with fresh medium.
# Samples were transferred to HPLC vials for HPLC analysis according to USP Method.
# [6] = pH of 2 mL water as diffusion medium with pH-modifying excipients; assay type: physicochemical
# [7] = 1.125% (w/v) in 2 mL water, With Epi (20 mg)
# [8] = 1.125% (w/v) in 2 mL water, Without Epi
# [9] = 1.875% (w/v) in 2 mL water, With Epi (20 mg)
# [10] = 1.875% (w/v) in 2 mL water, Without Epi
compound,measurement,setting,value
"CNC[C@H](O)c1ccc(O)c(O)c1 [Epi, Epinephrine]",optimal pH values for the stability of Epi in aqueous solution,[1],3.0-3.8
same,enhancement of Epi sublingual permeability,[2]; alkalizing agent (pH of diffusion medium around 8) with permeation enhancer like SDS,about 25 fold
same,enhancement of Epi sublingual permeability,"[2]; alkalizing agent or permeation enhancer, each one alone",10- to 11 fold
same,"recovery at 0 min, 5 mg/mL","in vitro [3]; male, human, human saliva",100 ± 0.2%
same,"recovery at 2 min, 5 mg/mL","in vitro [3]; male, human, human saliva",96 ± 0.2%
same,"recovery at 4 min, 5 mg/mL","in vitro [3]; male, human, human saliva",96 ± 0.2%
same,"recovery at 6 min, 5 mg/mL","in vitro [3]; male, human, human saliva",95 ± 0.1%
same,"recovery at 10 min, 5 mg/mL","in vitro [3]; male, human, human saliva",95 ± 0.2%
same,"recovery at 15 min, 5 mg/mL","in vitro [3]; male, human, human saliva",92 ± 0.2%
same,"recovery at 30 min, 5 mg/mL","in vitro [3]; male, human, human saliva",84%
same,stability of Epi in human saliva,in vitro [3]; saliva pH and up to pH 8,stable in human saliva (saliva pH and up to pH 8) for sufficient time to allow for sublingual drug administration
same,Epi loss,[4],10-17%
same,AUC0-90 min,in vitro [5]; pH 5,5169 ± 255 μg/cm^2/ min
same,J (influx),in vitro [5]; pH 5,0.4 ± 0.1 μg/cm^2/min
same,AUC0-90 min,in vitro [5]; pH 6,6191 ± 756 μg/cm^2/ min
same,J (influx),in vitro [5]; pH 6,0.8 ± 0.2 μg/cm^2/min
same,AUC0-90 min,in vitro [5]; pH 6.8,46562 ± 3450 μg/cm^2/ min
same,J (influx),in vitro [5]; pH 6.8,2.8 ± 0.2 μg/cm^2/min
same,AUC0-90 min,in vitro [5]; pH 7.4,60099 ± 6576 μg/cm^2/ min
same,J (influx),in vitro [5]; pH 7.4,5.3 ± 0.2 μg/cm^2/min
same,AUC0-90 min,in vitro [5]; pH 8,135689 ± 439 μg/cm^2/ min
same,J (influx),in vitro [5]; pH 8,30.9 ± 0.4 μg/cm^2/min
same,increase of Epi sublingual permeability,in vitro [5]; pH 8 compared to pH 6.8,about 11 fold
same,"Papp at 90 min, 10 mg/mL",in vitro [5]; pH 5,333 ×10⁻⁶ cm/s
same,"Papp at 90 min, 10 mg/mL",in vitro [5]; pH 6,667 ×10⁻⁶ cm/s
same,"Papp at 90 min, 10 mg/mL",in vitro [5]; pH 6.8,2330 ×10⁻⁶ cm/s
same,"Papp at 90 min, 10 mg/mL",in vitro [5]; pH 7.4,4330 ×10⁻⁶ cm/s
"O=C([O-])O.[Na+] [Na Bicarbonate, sodium bicarbonate]",pH Reading,[6]; [7],7.9 ± 0.1
same,pH Reading,[6]; [8],8.9 ± 0.1
same,pH Reading,[6]; [9],7.7 ± 0.0
same,pH Reading,[6]; [10],8.5 ± 0.1
same,pH Reading,"[6]; 2.25% (w/v) in 2 mL water, With Epi (20 mg)",7.9 ± 0.1
same,pH Reading,"[6]; 2.25% (w/v) in 2 mL water, Without Epi",8.6 ± 0.1
Na Citrate,pH Reading,[6]; [7],5.0 ± 0.1
same,pH Reading,[6]; [8],9.4 ± 0.1
same,pH Reading,[6]; [9],7.1 ± 0.1
same,pH Reading,[6]; [10],9.8 ± 0.1

# Source: patent US12357591B2 (Nova Southeastern University, priority 2018, dated 2025)
